For 31 molecules, EC50 results are on record in patent publication US9951065B2 (Gilead Sciences, Inc., priority 2015, dated 2018).

The test deals with T1, IDO1 (Homo sapiens, UniProt P14902).
T1 construct: HeLa cells were treated with a test compound in the presence of IFNγ, which induces IDO1 expression; host or cells: H1-HeLa cells, IDO1 induced with IFNγ
T1 sequence (P14902 whole entry): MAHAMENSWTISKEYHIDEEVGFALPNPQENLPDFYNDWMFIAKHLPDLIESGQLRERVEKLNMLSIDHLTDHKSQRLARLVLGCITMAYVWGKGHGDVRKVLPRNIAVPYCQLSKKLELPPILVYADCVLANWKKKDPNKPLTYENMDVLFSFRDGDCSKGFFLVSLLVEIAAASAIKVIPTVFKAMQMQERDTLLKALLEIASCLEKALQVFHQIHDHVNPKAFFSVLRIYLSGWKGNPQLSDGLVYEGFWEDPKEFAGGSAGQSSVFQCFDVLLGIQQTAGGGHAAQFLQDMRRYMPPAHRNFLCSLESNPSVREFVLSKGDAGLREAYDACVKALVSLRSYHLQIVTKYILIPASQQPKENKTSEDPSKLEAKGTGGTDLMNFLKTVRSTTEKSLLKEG
Nature of the test: Cell-based (HeLa) assay for measurement of IDO1 inhibition (kynurenine levels in supernatant after IFNγ induction). Particulars: HeLa cells, IFNγ-induced IDO1, kynurenine in supernatant after 48 hour incubation; geometric mean of a minimum of four determinations. The gist of the method:
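IDO1 activity is read as kynurenine released into the medium, detected with Ehrlich's reagent (p-dimethylaminobenzaldehyde) at 480 nm after TCA treatment. HeLa cells were exposed 48 h to compounds in 0.5% DMSO alongside IFNγ induction. Values normalized to no-IFNγ and IFNγ controls; four-parameter EC50 given as geometric mean of ≥4 determinations.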
Turning to `CN(CCc1nc2nccc(/C(=N/O)Nc3ccc(F)c(Cl)c3)c2[nH]1)CC(F)F` [Example 187, N-(3-Chloro-4-fluorophenyl)-2-(2-((2,2-difluoroethyl)(methyl)amino)ethyl)-N′-hydroxy-1H-imidazo[4,5-b]pyridine-7-carboximidamide], a half-maximal effect (EC50) was put at 3.4 µM.

As to `CNCCc1nc2nccc(/C(=N/O)Nc3ccc(F)c(Cl)c3)c2[nH]1` [Example 188, N-(3-Chloro-4-fluorophenyl)-N′-hydroxy-2-(2-(methylamino)ethyl)-1H-imidazo[4,5-b]pyridine-7-carboximidamide], the EC50 – broadly, the midpoint of the concentration-response curve – came out at 1.51 µM.

`NCCc1nc2nccc(/C(=N/O)Nc3ccc(F)c(Cl)c3)c2[nH]1` [Example 189, 2-(2-Aminoethyl)-N-(3-chloro-4-fluorophenyl)-N′-hydroxy-1H-imidazo[4,5-b]pyridine-7-carboximidamide]: the EC50 came to 1.78 µM.

For the molecule `COCCNCCc1nc2nccc(/C(=N/O)Nc3ccc(F)c(Cl)c3)c2[nH]1` [Example 190, N-(3-Chloro-4-fluorophenyl)-N′-hydroxy-2-(2-((2-methoxyethyl)amino)ethyl)-1H-imidazo[4,5-b]pyridine-7-carboximidamide], the EC50 was 1.51 µM.

For `O/N=C(\Nc1ccc(F)c(Cl)c1)c1ccnc2nc(CCN3CCOCC3)[nH]c12` [Example 191, N-(3-Chloro-4-fluorophenyl)-N′-hydroxy-2-(2-morpholinoethyl)-1H-imidazo[4,5-b]pyridine-7-carboximidamide], the EC50 came to 2.82 µM.

The molecule `O/N=C(\Nc1ccc(F)c(Cl)c1)c1ccnc2nc(CCN3CCCCC3)[nH]c12` [Example 192, N-(3-Chloro-4-fluorophenyl)-N′-hydroxy-2-(2-(piperidin-1-yl)ethyl)-1H-imidazo[4,5-b]pyridine-7-carboximidamide] showed an EC50 of 0.241 µM.

For `O/N=C(\Nc1ccc(F)c(Cl)c1)c1ccnc2nc(CCN3CCCC3)[nH]c12` [Example 193, N-(3-Chloro-4-fluorophenyl)-N′-hydroxy-2-(2-(pyrrolidin-1-yl)ethyl)-1H-imidazo[4,5-b]pyridine-7-carboximidamide], the EC50 stood at 0.358 µM.

`COCCN(C)CCc1nc2nccc(/C(=N/O)Nc3ccc(F)c(Cl)c3)c2[nH]1` [Example 194, N-(3-Chloro-4-fluorophenyl)-N′-hydroxy-2-(2-((2-methoxyethyl)(methyl)amino)ethyl)-1H-imidazo[4,5-b]pyridine-7-carboximidamide] had an EC50 of 0.504 µM.

`CN(C)CC(O)c1nc2nccc(/C(=N/O)Nc3ccc(F)c(Cl)c3)c2[nH]1` (stereo not shown) [Example 195, N-(3-Chloro-4-fluorophenyl)-2-(2-(dimethylamino)-1-hydroxyethyl)-N′-hydroxy-1H-imidazo[4,5-b]pyridine-7-carboximidamide] displayed an EC50 of 1.16 µM.

Consider `CC(C)CNCc1nc2nccc(/C(=N/O)Nc3ccc(F)c(Cl)c3)c2[nH]1` [Example 196, N-(3-Chloro-4-fluorophenyl)-N′-hydroxy-2-((isobutylamino)methyl)-1H-imidazo[4,5-b]pyridine-7-carboximidamide], for which the EC50 was 1.33 µM.

The molecule `Cn1cnc2c(/C(=N/O)Nc3ccc(F)c(Cl)c3)ccnc21` [Example 197, N-(3-Chloro-4-fluorophenyl)-N′-hydroxy-3-methyl-3H-imidazo[4,5-b]pyridine-7-carboximidamide] yielded an EC50 of 5.46 µM.

Regarding `CN(C)CCCc1nc2c(F)c(F)cc(/C(=N/O)Nc3ccc(F)c(Cl)c3)c2[nH]1` [Example 199, N-(3-Chloro-4-fluorophenyl)-2-[3-(dimethylamino)propyl]-6,7-difluoro-N′-hydroxy-3H-benzimidazole-4-carboximidamide], the midpoint of the response, the EC50, lay at 4.49 µM.

`O/N=C(\Nc1ccc(F)c(Cl)c1)c1ccc(F)c2nc(NCCCN3CCOCC3)[nH]c12` [Example 200, N-(3-Chloro-4-fluorophenyl)-7-fluoro-N′-hydroxy-2-(3-morpholin-4-ylpropylamino)-3H-benzimidazole-4-carboximidamide] had an EC50 of 0.564 µM.

On to `CN(C)CCNc1nc2c(F)ccc(/C(=N/O)Nc3ccc(F)c(Cl)c3)c2[nH]1` [Example 201, N-(3-Chloro-4-fluorophenyl)-2-[2-(dimethylamino)ethylamino]-7-fluoro-N′-hydroxy-3H-benzimidazole-4-carboximidamide], for which the EC50 was found to be 0.428 µM.

Molecule `CN1CCCCC1CNc1nc2nccc(/C(=N/O)Nc3ccc(F)c(Cl)c3)c2[nH]1` (stereo not shown) [Example 202, N-(3-Chloro-4-fluorophenyl)-N′-hydroxy-2-[(1-methylpiperidin-2-yl)methylamino]-1H-imidazo[4,5-b]pyridine-7-carboximidamide] gave an EC50 of 2.09 µM.

The molecule `CN1CCC(Nc2nc3nccc(/C(=N/O)Nc4ccc(F)c(Cl)c4)c3[nH]2)C1` (stereo not shown) [Example 203, N-(3-Chloro-4-fluorophenyl)-N′-hydroxy-2-[(1-methylpyrrolidin-3-yl)amino]-1H-imidazo[4,5-b]pyridine-7-carboximidamide] gave an EC50 of 1.34 µM.

For the molecule `CCNCCc1nc2nccc(/C(=N/O)Nc3ccc(F)c(Cl)c3)c2[nH]1` [Example 204, N-(3-chloro-4-fluorophenyl)-2-(2-(ethylamino)ethyl)-N′-hydroxy-3H-imidazo[4,5-b]pyridine-7-carboximidamide], the response was half-maximal at 2.19 µM (EC50).

As to `CC(C)NCCc1nc2nccc(/C(=N/O)Nc3ccc(F)c(Cl)c3)c2[nH]1` [Example 205, N-(3-chloro-4-fluorophenyl)-N′-hydroxy-2-(2-(isopropylamino)ethyl)-3H-imidazo[4,5-b]pyridine-7-carboximidamide], the EC50 stood at 2.82 µM.

`CC(C)CNCCc1nc2nccc(/C(=N/O)Nc3ccc(F)c(Cl)c3)c2[nH]1` [Example 206, N-(3-chloro-4-fluorophenyl)-N′-hydroxy-2-(2-(isobutylamino)ethyl)-3H-imidazo[4,5-b]pyridine-7-carboximidamide]: a half-maximal response (EC50) required 2.3 µM.

`O/N=C(\Nc1ccc(F)c(Cl)c1)c1ccnc2nc(CCNC3CC3)[nH]c12` [Example 207, N-(3-chloro-4-fluorophenyl)-2-(2-(cyclopropylamino)ethyl)-N′-hydroxy-3H-imidazo[4,5-b]pyridine-7-carboximidamide] came in with an EC50 of 1.26 µM.

In turn, `NC1=NCCN1CCc1nc2nccc(/C(=N/O)Nc3ccc(F)c(Cl)c3)c2[nH]1` [Example 209, 2-(2-(2-amino-4,5-dihydro-1H-imidazol-1-yl)ethyl)-N-(3-chloro-4-fluorophenyl)-N′-hydroxy-1H-imidazo[4,5-b]pyridine-7-carboximidamide] returned an EC50 of 5 µM.

`CS(=O)(=O)NCCc1nc2c(F)c(F)cc(/C(=N/O)Nc3ccc(F)c(Cl)c3)c2[nH]1` [Example 210, N-(3-chloro-4-fluorophenyl)-4,5-difluoro-N′-hydroxy-2-(2-(methylsulfonamido)ethyl)-1H-benzo[d]imidazole-7-carboximidamide]: the EC50 was > 10 µM.

In the case of `NCCc1nc2c(F)c(F)cc(/C(=N/O)Nc3ccc(F)c(Cl)c3)c2[nH]1` [Example 211, 2-(2-aminoethyl)-N-(3-chloro-4-fluorophenyl)-4,5-difluoro-N′-hydroxy-1H-benzo[d]imidazole-7-carboximidamide], the EC50 was > 10 µM.

`COCCNc1nc2nccc(C(=NO)Nc3ccc(F)c(Cl)c3)c2[nH]1` [Example 212, N-(3-chloro-4-fluorophenyl)-N′-hydroxy-2-((2-methoxyethyl)amino)-1H-imidazo[4,5-b]pyridine-7-carboximidamide] came in with an EC50 of 0.876 µM.

In turn, `CC(C)(C)OC(=O)NCCc1nc2c(F)c(F)cc(/C(=N/O)Nc3ccc(F)c(Cl)c3)c2[nH]1` [Example 213, tert-butyl (2-(7-(N-(3-chloro-4-fluorophenyl)-N′-hydroxycarbamimidoyl)-4,5-difluoro-1H-benzo[d]imidazol-2-yl)ethyl)carbamate] had a half-maximal effective concentration (EC50) of 3.62 µM.

`ON=C(Nc1ccc(F)c(Cl)c1)c1ccnc2nc(NCCN3CCC(F)(F)CC3)[nH]c12` [Example 214, N-(3-chloro-4-fluorophenyl)-2-((2-(4,4-difluoropiperidin-1-yl)ethyl)amino)-N′-hydroxy-1H-imidazo[4,5-b]pyridine-7-carboximidamide] gave an EC50 of 1.91 µM.

With `CN(C)CCNc1nc2nccc(C(=NO)Nc3ccc(F)c(Cl)c3)c2[nH]1` [Example 215, N-(3-chloro-4-fluorophenyl)-2-((2-(dimethylamino)ethyl)amino)-N′-hydroxy-1H-imidazo[4,5-b]pyridine-7-carboximidamide], a half-maximal effect (EC50) was put at 1.2 µM.

`CNCCNc1nc2nccc(/C(=N/O)Nc3ccc(F)c(Cl)c3)c2[nH]1` [Example 216, N-(3-chloro-4-fluorophenyl)-N′-hydroxy-2-((2-(methylamino)ethyl)amino)-1H-imidazo[4,5-b]pyridine-7-carboximidamide] gave an EC50 of 2.01 µM.

`CN1CCCCC(Nc2nc3nccc(/C(=N/O)Nc4ccc(F)c(Cl)c4)c3[nH]2)C1` (stereo not shown) [Example 217, N-(3-chloro-4-fluorophenyl)-N′-hydroxy-2-((1-methylazepan-3-yl)amino)-1H-imidazo[4,5-b]pyridine-7-carboximidamide]: the half-maximal effective concentration (EC50) worked out at 2.87 µM.

In the case of `O=S1(=O)CCN(CCNc2nc3nccc(/C(=N/O)Nc4ccc(F)c(Cl)c4)c3[nH]2)CC1` [Example 218, N-(3-chloro-4-fluorophenyl)-2-((2-(1,1-dioxidothiomorpholino)ethyl)amino)-N′-hydroxy-1H-imidazo[4,5-b]pyridine-7-carboximidamide], the EC50 was > 10 µM.

`COCCN(C)CCNc1nc2nccc(/C(=N/O)Nc3ccc(F)c(Cl)c3)c2[nH]1` [Example 219, N-(3-chloro-4-fluorophenyl)-N′-hydroxy-2-((2-((2-methoxyethyl)(methyl)amino)ethyl)amino)-1H-imidazo[4,5-b]pyridine-7-carboximidamide]: it took 3.83 µM to reach a half-maximal effect (EC50).
